The target in test [1] is Cytochrome P450 2C9 (Homo sapiens, UniProt P11712).
Test [2] addresses Cytochrome P450 2D6 (Homo sapiens, UniProt P10635).
The nature of test [3]: Luminescence Cell-Based Dose Retest to Confirm Inhibitors of Cancer Stem Cells. [Related pubchem assays (depositor defined):AID2717, AID2721]. It counts as functional. The note with it: Homo sapiens.
Test [4] can be described thus: HEp-2 cell cytotoxicity, dose response, cytotoxicity control for RSV inhibitor project, HTS (AID 2410). In kind it is functional. The settings on record: human respiratory syncytial virus.
Test [5] can be described thus: Luminescence Cell-Based Dose Response HTS to Identify Activators of Luciferase Translation or Activity in H4 […] Cells. [Related pubchem assays: 1829 (Project Summary), 1814 (Primary HTS)]. In kind it is functional.
The subject of test [6] is H4. The experiment in a line: Luminescence Cell-Based Dose Response HTS to Identify Activators of 5'UTR Stem-Loop Driven Prion Protein mRNA Translation in H4 Neuroglioblastoma Cells. [Related pubchem assays: 1829 (Project Summary), 1814 (Primary HTS)]. The settings on record: Homo sapiens. In kind it is functional.
Test [7] is described as follows: Luminescence Cell-Based Dose Confirmation HTS to Identify Activators of 5'UTR Stem-Loop Driven Alpha-Synuclein mRNA Translation in H4 Neuroglioblastoma Cells. [Related pubchem assays: 1829 (Project Summary), 1814 (Primary HTS)]. In kind it is functional.
Test [8] relates to Streptococcus. The experiment in a line: Group A Streptococcus viability loss, dose response, counter-screen for streptokinase expression inhibitor project, luminescence, BacTiterGlo (AID 1915).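 Further: potency for reduction of bacterial viability or growth.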 It counts as functional, organism-based. (In general: Counterscreens check selectivity or assay interference.)
The subject of test [9] is Streptococcus sp. 'group A'. Put plainly: growth inhibition of control SK(-) GAS strain, dose response, counter-screen for streptokinase expression inhibitor project, luminescence, kanamycin, BacTiterGlo, confirmation (AID 1900). In kind it is functional, organism-based.
Test [10] addresses T1, Streptokinase A (Streptococcus pyogenes serotype M1, UniProt P10520).
T1 sequence (P10520 whole entry): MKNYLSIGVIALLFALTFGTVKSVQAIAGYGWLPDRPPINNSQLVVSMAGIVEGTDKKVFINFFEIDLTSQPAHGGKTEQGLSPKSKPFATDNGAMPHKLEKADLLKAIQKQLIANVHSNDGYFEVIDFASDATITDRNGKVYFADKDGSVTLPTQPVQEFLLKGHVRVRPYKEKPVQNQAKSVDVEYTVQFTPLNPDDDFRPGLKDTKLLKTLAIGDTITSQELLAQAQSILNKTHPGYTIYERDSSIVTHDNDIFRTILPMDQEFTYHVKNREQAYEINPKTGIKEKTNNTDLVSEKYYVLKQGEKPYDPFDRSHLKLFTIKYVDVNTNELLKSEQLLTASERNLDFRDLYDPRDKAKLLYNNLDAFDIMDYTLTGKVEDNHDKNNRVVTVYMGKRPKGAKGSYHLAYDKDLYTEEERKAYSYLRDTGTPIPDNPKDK
Put plainly: S. pyogenes streptokinase expression inhibitors, potency, dose response, plasminogen activation absorbance, OD405 (AID 1914).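 Further: secreted streptokinase activity via plasminogen activation per viability signal from cell pellet.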 It counts as functional, Streptococcus pyogenes M1 GAS.

Test [11] has as its target T2, Cytochrome P450 1A2 (Homo sapiens, UniProt P05177).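 Further: PubChem cytochrome P450 panel assay, CYP1A2 panel member.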
T2 sequence (P05177 whole entry): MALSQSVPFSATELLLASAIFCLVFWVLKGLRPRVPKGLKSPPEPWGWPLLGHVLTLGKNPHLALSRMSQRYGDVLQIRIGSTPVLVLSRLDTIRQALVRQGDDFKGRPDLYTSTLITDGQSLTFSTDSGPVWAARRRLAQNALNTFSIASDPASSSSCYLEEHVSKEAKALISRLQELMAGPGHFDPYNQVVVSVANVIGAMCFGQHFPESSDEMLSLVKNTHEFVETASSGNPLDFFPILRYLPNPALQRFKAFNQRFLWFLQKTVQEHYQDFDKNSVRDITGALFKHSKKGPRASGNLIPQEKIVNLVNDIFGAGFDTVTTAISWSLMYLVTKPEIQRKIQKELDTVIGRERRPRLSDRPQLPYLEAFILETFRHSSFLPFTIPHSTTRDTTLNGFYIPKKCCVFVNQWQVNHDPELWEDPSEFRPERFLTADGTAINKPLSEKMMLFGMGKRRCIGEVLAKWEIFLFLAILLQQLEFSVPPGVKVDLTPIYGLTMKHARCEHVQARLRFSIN

For test [12], the target named is Cytochrome P450 3A4 (Homo sapiens, UniProt P08684).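 Further: CYP3A4 tested as one member of a cytochrome P450 panel screen.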
Test [13] deals with Cytochrome P450 2C19 (Homo sapiens, UniProt P33261). The experiment in a line: Cytochrome panel assay with activity outcomes. Panel member name: p450-cyp2c19 Compounds with AC50 equal or less than 10 uM are considered active. In kind it is functional. The note with it: read-out: AC50.

Active and inactive are the calls of the source.

As a reminder, the AC50 is the concentration giving half of the maximal activity seen. By CC50 is commonly meant the concentration that lowers cell viability or growth by half. One may read the EC50 as the concentration that produces a half-maximal response.

Sequence of Cytochrome P450 2D6 (P10635 whole entry): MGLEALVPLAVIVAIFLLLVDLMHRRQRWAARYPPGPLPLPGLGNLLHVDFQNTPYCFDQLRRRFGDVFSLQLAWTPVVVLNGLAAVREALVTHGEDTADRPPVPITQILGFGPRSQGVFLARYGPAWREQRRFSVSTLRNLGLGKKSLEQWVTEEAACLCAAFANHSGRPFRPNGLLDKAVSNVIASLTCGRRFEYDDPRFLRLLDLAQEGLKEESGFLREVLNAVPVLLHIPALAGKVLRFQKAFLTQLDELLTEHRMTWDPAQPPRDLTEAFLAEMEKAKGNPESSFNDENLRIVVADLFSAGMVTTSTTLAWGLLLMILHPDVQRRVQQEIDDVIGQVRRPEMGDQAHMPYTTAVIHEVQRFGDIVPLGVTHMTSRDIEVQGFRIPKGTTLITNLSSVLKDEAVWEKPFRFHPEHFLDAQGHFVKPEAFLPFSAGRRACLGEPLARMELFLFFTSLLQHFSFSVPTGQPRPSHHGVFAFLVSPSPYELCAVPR
Sequence of Cytochrome P450 2C9 (P11712 whole entry): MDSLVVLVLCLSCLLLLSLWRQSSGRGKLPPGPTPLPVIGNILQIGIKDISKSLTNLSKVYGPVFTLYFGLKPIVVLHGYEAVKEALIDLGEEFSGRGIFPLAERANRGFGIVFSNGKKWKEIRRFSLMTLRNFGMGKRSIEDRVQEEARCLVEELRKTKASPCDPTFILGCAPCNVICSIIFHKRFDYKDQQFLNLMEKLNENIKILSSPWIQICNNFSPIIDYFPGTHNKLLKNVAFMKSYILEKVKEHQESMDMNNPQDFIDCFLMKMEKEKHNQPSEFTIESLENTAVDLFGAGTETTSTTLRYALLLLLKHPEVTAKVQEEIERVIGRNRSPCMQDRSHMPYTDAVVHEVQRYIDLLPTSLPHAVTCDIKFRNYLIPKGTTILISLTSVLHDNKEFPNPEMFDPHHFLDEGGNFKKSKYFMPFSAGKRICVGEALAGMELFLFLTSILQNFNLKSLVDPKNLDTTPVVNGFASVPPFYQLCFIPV
Sequence of Cytochrome P450 3A4 (P08684 whole entry): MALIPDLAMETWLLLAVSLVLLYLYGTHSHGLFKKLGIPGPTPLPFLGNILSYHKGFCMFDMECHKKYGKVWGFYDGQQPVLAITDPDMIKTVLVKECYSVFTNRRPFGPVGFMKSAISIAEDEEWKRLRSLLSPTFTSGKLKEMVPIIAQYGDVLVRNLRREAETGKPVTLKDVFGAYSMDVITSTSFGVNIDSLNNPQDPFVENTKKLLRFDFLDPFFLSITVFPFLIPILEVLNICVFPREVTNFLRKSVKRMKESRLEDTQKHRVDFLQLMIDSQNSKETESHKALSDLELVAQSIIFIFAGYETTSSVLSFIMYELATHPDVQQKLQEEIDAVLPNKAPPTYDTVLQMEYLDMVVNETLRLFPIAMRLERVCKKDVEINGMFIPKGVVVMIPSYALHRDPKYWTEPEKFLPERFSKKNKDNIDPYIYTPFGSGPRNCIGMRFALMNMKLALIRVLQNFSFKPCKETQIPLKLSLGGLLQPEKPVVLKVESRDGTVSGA
Sequence of Cytochrome P450 2C19 (P33261 whole entry): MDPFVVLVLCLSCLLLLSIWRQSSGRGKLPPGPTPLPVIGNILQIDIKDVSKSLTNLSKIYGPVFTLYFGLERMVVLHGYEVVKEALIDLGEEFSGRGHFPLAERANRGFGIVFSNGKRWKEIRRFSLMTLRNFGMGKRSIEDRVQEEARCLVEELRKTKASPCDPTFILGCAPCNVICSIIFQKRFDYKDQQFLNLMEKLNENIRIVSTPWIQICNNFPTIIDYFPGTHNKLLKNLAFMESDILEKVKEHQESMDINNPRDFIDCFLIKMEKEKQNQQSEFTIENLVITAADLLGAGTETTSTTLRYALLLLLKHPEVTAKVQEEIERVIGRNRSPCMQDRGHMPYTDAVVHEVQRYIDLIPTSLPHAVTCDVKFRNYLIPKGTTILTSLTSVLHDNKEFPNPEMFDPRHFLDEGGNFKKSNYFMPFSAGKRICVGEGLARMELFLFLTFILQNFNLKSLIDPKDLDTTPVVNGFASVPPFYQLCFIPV

For the molecule `COc1ccc(NC(=O)CSc2nc3ccccc3cc2Cc2ccccc2)cc1`, the AC50 was 1.26 µM (inconclusive) in test [1] and 0.2 µM (inconclusive) in [2]. Take `COc1ccc(-c2cc(C(F)F)nc(-n3nc(C)cc3C)n2)cc1`: in [2], the AC50 is 22.4 µM (inconclusive). With `CCc1ccc(N(CC(=O)Nc2nc3ccc(C)cc3s2)S(=O)(=O)c2c(C)noc2C)cc1`, in test [3], the half-maximal activity concentration (AC50) is 3.45 µM (active).

Turning to `CCN(CC)S(=O)(=O)c1cccc(NC(=O)c2cc3ccccc3o2)c1`, the CC50 in test [4] is 10.9 µM (active).

As to `CCNc1ncc2nc(-c3ccc(F)cc3)c(=O)n(C[C@H]3CCCO3)c2n1`, the AC50 in [2] is 0.631 µM (inconclusive).

Turning to `Oc1ccc(Cl)cc1/C=N\c1cnc2ccccc2c1`, the half-maximal activity concentration (AC50) in test [2] was 5.01 µM (inconclusive). With `Cc1nc2ccccc2c(=O)n1-c1ccc(Br)cn1`, the EC50 in test [5], in test [6] and in test [7] was > 120 µM (not active) throughout. `CCN(c1ccccc1)S(=O)(=O)c1ccc(NC(=S)NC(=O)c2ccc(Br)o2)cc1`: the AC50 in test [2] is 3.16 µM (inconclusive).

`Cc1csc(SCC(=O)c2c(N)n(C)c(=O)n(C)c2=O)n1`: the EC50 in test [5] was 29.5 µM (active); in test [6] it was > 120 µM (not active); in test [7], 2.14 µM (active). In the same order, the values of `CCCCNC(=O)Cn1nc([N+](=O)[O-])c([N+](=O)[O-])c1C` are 11.1 µM (active), 35.2 µM (active) and > 120 µM (not active). Regarding `CC(C)(C)c1ccc(-c2noc(-c3ccc4c(c3)CCO4)n2)cc1`, the EC50 in test [8] is > 150 µM (not active); in [5], 2.25 µM (active); in [9], 5.26 µM (active); in test [6], 0.553 µM (active); in [7] it was 0.493 µM (active); in [10] it was 46 µM (active).

`CN1CCN(c2ncncc2-c2ccccc2C(F)(F)F)CC1`: the half-maximal activity concentration (AC50) in test [11] was 31.6 µM (inconclusive); in test [2] it was 20 µM (inconclusive); in test [12], 3.98 µM (inconclusive). Consider `Cc1ccc(-n2c([S-])c(C(=O)Nc3ccc(OC(F)F)cc3)[n+]3ccc(C(=O)NCCO)cc23)cc1C`, for which the figures for the EC50 in test [5], in [6] and in [7] were > 120 µM (not active), 21.3 µM (active) and 7.99 µM (active), respectively. Take `CCC(=O)O[C@@]1(C(=O)CCl)[C@@H](C)C[C@@H]2[C@H]3CCC4=CC(=O)C=C[C@@]4(C)[C@]3(F)[C@@H](O)C[C@@]21C`: the values for the AC50 in [1] and in [2] were 15.8 µM (inconclusive) and 10 µM (inconclusive), respectively. Regarding `Cc1c(C(=O)N(CCc2ccccc2)Cc2ccccc2)cccc1[N+](=O)[O-]`, in [4], the CC50 was 25.5 µM (active). In the case of `CCC(C)(C)NC(=O)CSc1nc(Cc2ccccc2)nc2ccccc12`, in test [4], the CC50 was > 50 µM (active). For the molecule `CCc1ccc(Nc2cnn(-c3nc4ccccc4s3)c(=O)c2Cl)cc1`, the CC50 in test [4] was 44.6 µM (active).

In the case of `Cc1ccc(C)n1-c1ccc(C(=O)Nc2ccccc2F)cc1`, the EC50 in [5] was 43.1 µM (active); in [6], 14.5 µM (active); in test [7], 11.6 µM (active). On to `O=C(CCc1nc(-c2ccccc2)no1)NCCc1ccccc1`, for which the values for the concentration at half-maximal activity (AC50) in test [1] and in [2] were 15.8 µM (inconclusive) and 39.8 µM (inconclusive), respectively.

Regarding `Cc1noc(C)c1C(=O)Nc1ccc(C#N)cc1`, the CC50 in test [4] is 23.4 µM (active). In the case of `Cc1ccc(-c2noc(CCC(=O)NCCCN3CCN(c4cccc(Cl)c4)CC3)n2)cc1`, the CC50 in [4] is > 50 µM (active). On to `C[C@@H]1CC[C@]2(C(=O)O)CC[C@]3(C)C(=CCC4[C@]56CC[C@@](O)(OC5)C(C)(C)C6CC[C@]43C)C2[C@H]1C` (stereo partly specified), for which the AC50 in test [3] was 5.61 µM (active).

`COc1ccc(/N=C2/C(=N\c3ccc(OC)cc3)N(c3ccccc3)C(=S)N2C(=O)c2ccc(Cl)cc2)cc1`: the EC50 in [5] is 47.3 µM (active); in [6], 18.7 µM (active); in test [7], 41.1 µM (active).

With `Cc1cc(O)nc(N/N=C/c2ccc(-c3ccc(F)cc3)o2)n1`, the AC50 in test [3] was 9.21 µM (active).

As for `CSc1nncn1/N=C/c1ccc2c(c1)OCO2`, the AC50 in test [2] was 22.4 µM (inconclusive); in test [13], 25.1 µM (inconclusive).

For the molecule `Clc1cccc(Nc2nnc(-c3ccccc3)c3ccccc23)c1`, the AC50 in test [2] is 2 µM (inconclusive); in test [12], 7.94 µM (inconclusive). Consider `O=C1c2cccc3c([N+](=O)[O-])ccc(c23)C(=O)N1CCc1ccccn1`, for which the CC50 in test [4] was 7.83 µM (active).

`C=C1C[C@@H]2[C@H](CC[C@]3(C)C(=O)CC[C@@H]23)[C@@]2(C)C=CC(=O)C=C12` [EXEMESTANE]: the EC50 in [5] is 6.44 µM (active); in [6] it was 26.7 µM (active); in [7], 2.79 µM (active). Take `Cc1cc(C(C)(C)CC(C)(C)C)ccc1OCCOCC[N+](C)(C)Cc1ccccc1` [METHYLBENZETHONIUM]: the concentration at half-maximal activity (AC50) in test [11] and in test [2] was 12.6 µM (inconclusive) each time.

The record behind these values is ChEMBL document CHEMBL1201862, “PubChem BioAssay data set” (2004).
